The values that follow are results of earlier work, collected in patent publication EP3819377A1, “CIRCULAR RNA AND USES THEREOF FOR […]-BINDING PROTEINS” (Justus-Liebig-Universität Gießen, priority 2019, dated 2021).

Each structure is given as a SMILES string.

For this data set the following is noted: cationic lipid with a tertiary amine group; WO 2012/031046 A2.

Usually pKa stands for the negative logarithm of the acid dissociation constant. On to `CCCCC/C=C\C/C=C\CCCCCCCCOCC(CN(C)C)OCCCCCCCC/C=C\C/C=C\CCCCC` (stereo not shown) [DLinDMA, 1,2-dilinoleyloxy-N,N-dimethyl-3-aminopropane], for which the pKa is listed as 5.8.
